# Source: patent US7186530B1, “Protein associated with cell stress response” (Chiron Corporation, priority 2000, dated 2007)
# How the values were obtained:
# p46 hyperphosphorylation [1] = assay: p46 hyperphosphorylation induced by stress-inducing agents, Western blot; format: cell-based, human; details: for hyperphosphorylation of p46 (induction): 45 minutes
# Procedure: FIG. 4. […] (A) IMR90 cells were treated with 0, 0.5, 1, or 4 μM of BPDE and trypsinized after 30 minutes. (B) IMR90 cells were incubated in the presence or absence of suramin (0.15 mM) for 1 hour before being irradiated with 0 or 20 J/m^2 of UVC. (C) IMR90 cells were treated with 0.7 M NaCl, 1 mM H2O2, 0.4 M Sorbitol or PBS (control) for 45 minutes before being lysed.
# (§1) Cell culture and treatment. Normal human fibroblast IMR90 was purchased from American Type Culture Collection (Manassas, Va.). Cells were routinely cultured in Dulbecco's Modified Eagle's Medium (DMEM) containing 10% fetal bovine serum, 2 mM L-glutamine, 4.5 g/liter glucose, 100 units penicillin and 100 μg streptomycin at 37° C. under an atmosphere of 5% CO2. For UV irradiation, cells were washed twice with phosphate-buffered saline (PBS) and then irradiated with appropriate doses of UVC (254 nm). Fresh complete medium was added back and cells were lysed at appropriate times. For treatment with BPDE, cells were washed with PBS twice and fresh DMEM was added. BPDE was dissolved in anhydrous dimethyl sulfoxide (DMSO) and appropriate amount of BPDE solution was added to DMEM. Cells were lysed 30 minutes later.
# (§2) Western Blotting. Lysates prepared from equal number of cells were mixed with equal volume of 2× sample buffer (50 mM Tris.HCl, pH 6.9, 9% glycerol, 2.3% SDS, 0.1% bromophenol blue and 10% mecaptoethanol) and the proteins were separated on a SDS/polyacrylamide gel. The proteins were then electroblotted onto an Immobilon-P membrane (Millipore, Bedford, Mass.). The blots were blocked for 1 hour at room temperature in Tris-buffered saline (20 mM Tris-HCl, pH 7.6, 137 mM NaCl) containing 0.1% (v/v) Tween 20 and 5% (w/v) non-fat dry milk (blocking solution), and then incubated for 1 hour at room temperature with appropriate antibodies at a concentration of 0.2–1 μg/ml. The blots were washed several times and then incubated with horseradish peroxidase-conjugated goat-anti-mouse IgG (Santa Cruz Biotechnology) that had been diluted 1:3000 with blocking solution. Enhanced chemiluminescence (Amersham, Arlington Heights, Ill.) was used according to the manufacturer's recommendations to detect the signal.
# (§3) The data shown in FIG. 4 were obtained as follows. (A) IMR90 cells were treated with 0, 0.5, 1, or 4 μM of BPDE and trypsinized after 30 minutes. Digitonin-solubilized fraction (Cyto) and NP-40-solubilized fraction (Nuc) were separated on SDS-PAGE. SC-54 was used for Western Blotting. In FIG. 4, (B) IMR90 cells were incubated in the presence or absence of suramin (0.15 mM) for 1 hour before being irradiated with 0 or 20 J/m^2 of UVC. After 0, 10, 20 or 30 minutes, whole cell lysates were prepared, separated on SDS-PAGE and transferred to a PVDF membrane. SC-54 or an antibody against human ERK2 was used for Western Blotting. […] In FIG. 4, (C) IMR90 cells were treated with 0.7 M NaCl, 1 mM H2O2, 0.4 M Sorbitol or PBS (control) for 45 minutes before being lysed. Whole cell lysates were separated on SDS-PAGE. SC-54 was used for Western Blotting.
# p46 hyperphosphorylation [2] = assay: p46 (Nogo B) hyperphosphorylation after UVC irradiation in presence of inhibitors, Western blot with SC-54; format: cell-based, human
# Procedure: FIG. 5. […] Then cells were irradiated with 20 J/m^2 of UVC and lysed 30 minutes later. Whole cell lysates were separated on SDS-PAGE. SC-54 was used for Western Blotting.
# as §1, §2, §3
# It has been shown that elevated cellular stress level can activate p38 MAPK. The role of activation of p38 MAPK in p46 hyperphosphorylation was investigated.
# MEK = details: cited from earlier work
# p38 = details: read-out: IC50 (p38-specific inhibitor); cited from earlier work
# ERK2 = ERK2 phosphorylation after UVC irradiation, Western blot; format: cell-based, human; details: preincubation 0.15 mM for 1 hour, 20 J/m^2 UVC, IMR90 cells
# Procedure: as §2
# The data shown in FIG. 4 were obtained as follows. (A) IMR90 cells were treated with 0, 0.5, 1, or 4 μM of BPDE and trypsinized after 30 minutes. Digitonin-solubilized fraction (Cyto) and NP-40-solubilized fraction (Nuc) were separated on SDS-PAGE. SC-54 was used for Western Blotting. […]
structure (smiles),measurement,setting,value
"OC1c2cc3ccc4cccc5ccc(c2C2OC2C1O)c3c45 (racemic) [BPDE, (±)-r-7,t-8-dihydroxy-t-9,10-epoxy-7,8,9,10-tetrahydrobenzo(a)pyrene]",p46 hyperphosphorylation (induction),"p46 hyperphosphorylation [1]; 0, 0.5, 1, or 4 μM, 30 minutes, IMR90 cells",led to p46 hyperphosphorylation in a dose-dependent manner
OO [H2O2],hyperphosphorylation of p46 (induction),"p46 hyperphosphorylation [1]; 1 mM, IMR90 cells",rapid hyperphosphorylation
[Cl-].[Na+] [NaCl],hyperphosphorylation of p46 (induction),"p46 hyperphosphorylation [1]; 0.7 M, IMR90 cells",rapid hyperphosphorylation
COc1cccc(-c2cc(=O)c3ccccc3o2)c1N [PD98059],p46 hyperphosphorylation,p46 hyperphosphorylation [2]; 20 uM,not affected
Oc1ccc(-c2nc(-c3ccc(F)cc3)c(-c3ccncc3)[nH]2)cc1 [SB202190],p46 hyperphosphorylation,"p46 hyperphosphorylation [2]; 270 nM inhibitor, 30 minutes before 20 J/m^2 UVC, IMR90 cells",almost completely abolished
same,hyperphosphorylation of Nogo,"p46 hyperphosphorylation [2]; indicated concentrations for 30 minutes, then 20 J/m^2 UVC, lysed 30 minutes later, IMR90 (FIG. 5)",abolished
CCc1nc(-c2ccc(OC)cc2)[nH]c1-c1ccncc1 [SB202474],p46 hyperphosphorylation,"p46 hyperphosphorylation [2]; concentration not given, UVC, IMR90 cells",no effect
C[C@@]1(CO)[C@H](O)CC[C@@]2(C)[C@H]1CC[C@H]1C[C@@H]3C[C@@]12CC[C@]3(O)CO [aphidicolin],p46 phosphorylation state,p46 hyperphosphorylation [1]; cells arrested by the agent,hyperphosphorylated
OC[C@@H](O)[C@@H](O)[C@H](O)[C@@H](O)CO [sorbitol],hyperphosphorylation of p46 (induction),"p46 hyperphosphorylation [1]; 0.4 M, IMR90 cells",rapid hyperphosphorylation
Cc1ccc(C(=O)Nc2ccc(S(=O)(=O)O)c3cc(S(=O)(=O)O)cc(S(=O)(=O)O)c23)cc1NC(=O)c1cccc(NC(=O)Nc2cccc(C(=O)Nc3cc(C(=O)Nc4ccc(S(=O)(=O)O)c5cc(S(=O)(=O)O)cc(S(=O)(=O)O)c45)ccc3C)c2)c1 [suramin],p46 hyperphosphorylation,"p46 hyperphosphorylation [2]; preincubation 0.15 mM for 1 hour, 20 J/m^2 UVC, IMR90 cells",no effect
same,phosphorylation of ERK2,ERK2,completely blocked
